Test results reported in publication PMC11511665 (2024).

What was measured:
[1] = tested on: Clivia (R8 aptamer, GAAA tetraloop) (RNA, aptamer) GGAAGAUUGUAAACAUGCCGAAAGGCAGACACUUCC; assay: X-ray crystallography; conditions: Mg2+ (0.05 M MgCl2); 0.1 M HEPES pH 7.5, 30% PEG MME 550, 16 °C
[2] = tested on: Clivia_III (III_R8) (RNA, aptamer) GGAAGAUUGUAAACAGCGAGAUUGUAAACAGCGAGAUUGUAAACAUGCCGAAAGGCAGACACUCGCGACACUCGCGACACUUUC; assay: X-ray crystallography; conditions: 0.2 M MgCl2; 20% PEG 3350, 16 °C
[3] = tested on: M1 (delete U7; Del-U7) (RNA, aptamer) GGAAGAUGUAAACAUGCCGAAAGGCAGACACUUCC; assay: fluorescence activation; conditions: 100 mM KCl, 5 mM MgCl2; 40 mM HEPES pH 7.4; 1 μM fluorophore, 5 μM RNA
[4] = tested on: M2 (A11G/A12G/A13G) (RNA, aptamer) GGAAGAUUGUGGGCAUGCCGAAAGGCAGACACUUCC; assay: fluorescence activation; conditions: 100 mM KCl, 5 mM MgCl2; 40 mM HEPES pH 7.4; 1 μM fluorophore, 5 μM RNA
[5] = tested on: M3 (A11C/A12C/A13C) (RNA, aptamer) GGAAGAUUGUCCCCAUGCCGAAAGGCAGACACUUCC; assay: fluorescence activation; conditions: 100 mM KCl, 5 mM MgCl2; 40 mM HEPES pH 7.4; 1 μM fluorophore, 5 μM RNA
[6] = tested on: M4 (A11U/A12U/A13U) (RNA, aptamer) GGAAGAUUGUUUUCAUGCCGAAAGGCAGACACUUCC; assay: fluorescence activation; conditions: 100 mM KCl, 5 mM MgCl2; 40 mM HEPES pH 7.4; 1 μM fluorophore, 5 μM RNA
[7] = tested on: M5 (U8C/A29G) (RNA, aptamer) GGAAGAUCGUAAACAUGCCGAAAGGCAGGCACUUCC; assay: fluorescence activation; conditions: 100 mM KCl, 5 mM MgCl2; 40 mM HEPES pH 7.4; 1 μM fluorophore, 5 μM RNA
[8] = tested on: M6 (U8A/A29U) (RNA, aptamer) GGAAGAUAGUAAACAUGCCGAAAGGCAGUCACUUCC; assay: fluorescence activation; conditions: 100 mM KCl, 5 mM MgCl2; 40 mM HEPES pH 7.4; 1 μM fluorophore, 5 μM RNA
[9] = tested on: M7 (A15G/G28A) (RNA, aptamer) GGAAGAUUGUAAACGUGCCGAAAGGCAAACACUUCC; assay: fluorescence activation; conditions: 100 mM KCl, 5 mM MgCl2; 40 mM HEPES pH 7.4; 1 μM fluorophore, 5 μM RNA
[10] = tested on: M8 (G28U) (RNA, aptamer) GGAAGAUUGUAAACAUGCCGAAAGGCAUACACUUCC; assay: fluorescence activation; conditions: 100 mM KCl, 5 mM MgCl2; 40 mM HEPES pH 7.4; 1 μM fluorophore, 5 μM RNA
[11] = tested on: M9 (A15C) (RNA, aptamer) GGAAGAUUGUAAACCUGCCGAAAGGCAGACACUUCC; assay: fluorescence activation; conditions: 100 mM KCl, 5 mM MgCl2; 40 mM HEPES pH 7.4; 1 μM fluorophore, 5 μM RNA
[12] = tested on: Clivia_II (II_R8) (RNA, aptamer) GGAAGAUUGUAAACAGCGAGAUUGUAAACAUGCCGAAAGGCAGACACUCGCGACACUUUC; assay: fluorescence activation; conditions: 100 mM KCl, 5 mM MgCl2; 40 mM HEPES pH 7.4
[13] = tested on: Clivia_IV (IV_R8) (RNA, aptamer) GGAAGAUUGUAAACAGCGAGAUUGUAAACAGCGAGAUUGUAAACAGCGAGAUUGUAAACAUGCCGAAAGGCAGACACUCGCGACACUCGCGACACUCGCGACACUUUC; assay: fluorescence activation; conditions: 100 mM KCl, 5 mM MgCl2; 40 mM HEPES pH 7.4
[14] = tested on: Clivia_V (V_R8) (RNA, aptamer) GGAAGAUUGUAAACAGCGAGAUUGUAAACAGCGAGAUUGUAAACAGCGAGAUUGUAAACAGCGAGAUUGUAAACAUGCCGAAAGGCAGACACUCGCGACACUCGCGACACUCGCGACACUCGCGACACUUUC; assay: fluorescence activation; conditions: 100 mM KCl, 5 mM MgCl2; 40 mM HEPES pH 7.4
[15] = tested on: Clivia_VI (VI_R8) (RNA, aptamer) GGAAGAUUGUAAACAGCGAGAUUGUAAACAGCGAGAUUGUAAACAGCGAGAUUGUAAACAGCGAGAUUGUAAACAGCGAGAUUGUAAACAUGCCGAAAGGCAGACACUCGCGACACUCGCGACACUCGCGACACUCGCGACACUCGCGACACUUUC; assay: fluorescence activation; conditions: 100 mM KCl, 5 mM MgCl2; 40 mM HEPES pH 7.4
[16] = tested on: Clivia (R8 aptamer, GAAA tetraloop) (RNA, aptamer) GGAAGAUUGUAAACAUGCCGAAAGGCAGACACUUCC; assay: X-ray crystallography, 1.6 Å; conditions: Mg2+ (0.05 M MgCl2); 0.1 M HEPES pH 7.5, 30% PEG MME 550, 16 °C
[17] = tested on: Clivia (R8 aptamer, GAAA tetraloop) (RNA, aptamer) GGAAGAUUGUAAACAUGCCGAAAGGCAGACACUUCC; assay: fluorescence titration, Hill fit; conditions: 100 mM KCl, 5 mM MgCl2; 40 mM HEPES pH 7.4; 20 nM RNA
[18] = tested on: U7A (RNA, aptamer) GGAAGAAUGUAAACAUGCCGAAAGGCAGACACUUCC; assay: fluorescence titration, Hill fit; conditions: 100 mM KCl, 5 mM MgCl2; 40 mM HEPES pH 7.4; 20 nM RNA
[19] = tested on: U7C (RNA, aptamer) GGAAGACUGUAAACAUGCCGAAAGGCAGACACUUCC; assay: fluorescence titration, Hill fit; conditions: 100 mM KCl, 5 mM MgCl2; 40 mM HEPES pH 7.4; 20 nM RNA
[20] = tested on: U7G (RNA, aptamer) GGAAGAGUGUAAACAUGCCGAAAGGCAGACACUUCC; assay: fluorescence titration, Hill fit; conditions: 100 mM KCl, 5 mM MgCl2; 40 mM HEPES pH 7.4; 20 nM RNA
[21] = tested on: M10 (delete 2bp in P1; Del-2bp-P1) (RNA, aptamer) GAGAUUGUAAACAUGCCGAAAGGCAGACACUC; assay: fluorescence titration, Hill fit; conditions: 100 mM KCl, 5 mM MgCl2; 40 mM HEPES pH 7.4; 20 nM RNA
[22] = tested on: M11 (add 2bp in P1; Ad-2bp-P1) (RNA, aptamer) GGGGAAGAUUGUAAACAUGCCGAAAGGCAGACACUUCCCC; assay: fluorescence titration, Hill fit; conditions: 100 mM KCl, 5 mM MgCl2; 40 mM HEPES pH 7.4; 20 nM RNA
[23] = tested on: M12 (delete 2bp in P2; Del-2bp-P2) (RNA, aptamer) GGAAGAUUGUAAACACCGAAAGGGACACUUCC; assay: fluorescence titration, Hill fit; conditions: 100 mM KCl, 5 mM MgCl2; 40 mM HEPES pH 7.4; 20 nM RNA
[24] = tested on: M13 (add 2bp in P2; Ad-2bp-P2) (RNA, aptamer) GGAAGAUUGUAAACAUGCCGCGAAAGCGGCAGACACUUCC; assay: fluorescence titration, Hill fit; conditions: 100 mM KCl, 5 mM MgCl2; 40 mM HEPES pH 7.4; 20 nM RNA

`CN1C(=O)/C(=C/c2cc(F)c(O)c(F)c2)N=C1/C=C/c1ccc(O)cc1` was tested, and the binding [1] was “yes”.

`CN1C(=O)/C(=C/c2ccc(N(C)CCO)cc2)N=C1/C=C/c1ccccc1` was tested, and the binding [2] was “yes”, the binding [3] was “no” and the binding [4] was “no”. The binding [5] was “no”, the binding [6] was “no” and the binding [7] was “no”. For the same compound, the binding [8] was “no”, the binding [9] was “no” and the binding [10] was “weak”. The binding [11] was “no”, the binding [12] was “yes” and the binding [13] was “yes”. The binding [14] was “yes”, the binding [15] was “yes” and the binding [16] was “yes”. For the same compound, the Kd [17] was 71 ± 15 nM, the Kd [18] was 107 ± 12 nM and the Kd [19] was 46 ± 3 nM. It also gave a Kd [20] of 152 ± 12 nM, a Kd [21] of 84 nM and a Kd [22] of 61 nM. The Kd [23] was 44 nM and the Kd [24] was 55 nM.

With `CN1C(=O)/C(=C/c2cc(F)c(O)c(F)c2)N=C1/C=C/c1ccc(C#N)cc1` the binding [1] was “yes”.

`CN1C(=O)/C(=C/c2cc(F)c(O)c(F)c2)N=C1/C=C/c1ccccc1` was tested, and the binding [1] was “yes”.
